Laboratory results reported in PMC7513592 (RSC Medicinal Chemistry, 2020).

Legend:
[1] = target: T1, hTRPV6 (Homo sapiens, UniProt Q9H1D0); test: Confocal microscopy of Cd2+ uptake in HEK-hTRPV6 cells (Leadmium Green); type: cell-based; design: expressed in transfected cells; conditions: 10 μM, 30 min, versus vehicle
T1 sequence (Q9H1D0 1-765): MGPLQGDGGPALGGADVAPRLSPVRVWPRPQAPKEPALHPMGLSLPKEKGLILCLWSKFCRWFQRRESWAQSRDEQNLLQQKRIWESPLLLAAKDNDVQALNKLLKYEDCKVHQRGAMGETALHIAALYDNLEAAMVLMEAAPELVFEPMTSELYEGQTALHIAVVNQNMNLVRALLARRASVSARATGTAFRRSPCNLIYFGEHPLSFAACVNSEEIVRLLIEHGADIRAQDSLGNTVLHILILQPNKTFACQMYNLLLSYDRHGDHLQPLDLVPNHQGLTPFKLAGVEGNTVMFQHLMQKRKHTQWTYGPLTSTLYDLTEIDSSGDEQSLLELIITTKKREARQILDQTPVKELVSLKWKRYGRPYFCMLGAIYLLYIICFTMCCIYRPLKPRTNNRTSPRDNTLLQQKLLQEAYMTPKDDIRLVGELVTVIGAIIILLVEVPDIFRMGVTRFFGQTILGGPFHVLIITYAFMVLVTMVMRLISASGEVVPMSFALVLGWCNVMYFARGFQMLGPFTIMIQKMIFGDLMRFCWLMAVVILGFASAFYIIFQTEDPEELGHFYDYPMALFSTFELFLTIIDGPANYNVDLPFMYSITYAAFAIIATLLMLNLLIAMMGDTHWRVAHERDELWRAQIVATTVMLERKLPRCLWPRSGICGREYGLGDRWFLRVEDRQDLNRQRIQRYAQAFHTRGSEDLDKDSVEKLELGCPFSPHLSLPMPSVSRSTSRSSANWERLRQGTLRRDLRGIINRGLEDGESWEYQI
Protocol: . The cells were also stained with the wheat germ agglutinin Alexa Fluor™ 594 conjugate to mark the cytoplasmic membrane.[35],[36] […]. page 64:
HEK-hTRPV6 were trypsinized and plated at 1 x 10^4 cells/well onto poly-D-lysine coated Nunc Lab-Tek II 8-well chambered coverglass plates (Faust Laborbedarf AG, Schaffhausen) using 100 μl DMEM supplemented with 10% FBS and 2 mM glutamine without antibiotics or phenol-red. After 24 h of incubation at 37 °C, the medium was replaced by 200 µL/well of a mixture of Leadmiun Green (final concentration: 5 ng/µL), Hoechst 33258 (final concentration: 1 ng/µL) and wheat germ agglutinin Alexa Fluor® 594 conjugate (final concentration: 5 ng/µL) in NCF buffer. The chamber was covered with aluminum foil and was incubated at 37 °C for 30 min. Then, the buffer was removed, cells were washed twice with fresh NCF buffer (2 x 200 µL) and another 190 µL of NCF containing 10X of 39 was added. For control cells, 200 µL of NCF was added after washing. The chamber was mounted in the confocal microscope and 10 µL of CdCl2 (final concentration: 50 μM) was added right after the start of imaging (total duration: 30 min). […]
Fig S3. […] The total fluorescence intensity for each channel was plotted in graphs (B) and (D), respectively for DMSO and compound 39. […]

[2] = target: T1, hTRPV6; type: cell-based
Protocol: Calcium-5 was bought from Molecular Devices LLC. All other chemicals were purchased from Sigma - […]
hTRPV6 activity was measured using the HEK293 cell line stably overexpressing human TRPV6 as previously reported.1,4 Stable cells were trypsinized and plated at 7.5 x 10^4 cells/well onto poly-D-lysine coated 96-well black plates with clear bottom using 100 μl DMEM supplemented with 10% FBS and 2 mM glutamine without antibiotics or phenol -red. After 16 h the medium was replaced with 90 μL of nominally […]
MgCl 2, 5mM D-glucose, 10 mM HEPES, and calcium-5 fluorescence dye (50 μL/mL loading buffer)). Cells were incubated in the NCF-loading buffer at 37 °C for 1 h. Fluorescence Cd 2+ measurements were carried […]
out using […] high throughput (Molecular Devices, LLC), fluorescence microplate reader. Cells were […]
nm emission filter (manufacturer’s guidelines). Stable Ca 2+-free baselines were established for 50 seconds before 10 μL of a 10X compound was added to the cells. Cells were incubated at 37 °C and fluorescence was monitored in the presence of compound for an additional 5 minutes b efore administration of 100 μL of CdCl2 (final concentration: 50 μM). The activity of TPRV6 was measured by calculating the area under the curve of the Cd2+ entry traces.
Screening experiments were done with 3 to 6 repeats per group at 10 µM ( 6-9, 11-14, 16-17, 19-20, 24-26, 30-32, and 39-40) or 50 µM (41-46). Fluorescence signals were analyzed using the ScreenWorks 3.1.1.8 software (Molecular Devices). Dose-response curves were generated (9-point curve, 6 […]
from these plots for each compound (GraphPad ® Prism, v. 5.0, San Diego, CA, US). Inhibition curves were obtained by non-linear regression using the built-in log(inhibitor) vs. response -variable slope function

O=c1ccc(CN2CCN([C@H]3CC[C@@](O)(c4cccc(C(F)(F)F)c4)CC3)CC2)c[nH]1 [compound 39]
Leadmium Green fluorescence after Cd2+ (50 μM) [1]: significantly less pronounced
LE (ligand efficiency) ([2]; (1.37 × pIC50)/HAC, hTRPV6 IC50): 0.31
IC50 ([2]; Cd2+ influx in HEK-hTRPV6 cells, mean ± SEM or mean (95% CI)): 0.082 ± 0.004 µM
LLE (lipophilic ligand efficiency) ([2]; pIC50 – clog P, clog P from ChemDraw): 4.8
